Experimental data from patent publication US20260294874A1, “COMPOSITIONS COMPRISING MODULATORS OF RIBONUCLEOPROTEIN GRANULE FORMATION AND DISSOLUTION AND METHODS OF USE THEREOF” (University of Virginia Patent Foundation, priority 2023, published 2026).
Where two headings read alike, the source gives them in different places.

Columns and labels:
[1] = system: stress granules and P-bodies; conditions: literature, cited from earlier work
[2] = system: P-bodies (EDC4 foci) in HEK293T cells; assay: Immunofluorescence phenotypic screen for P-bodies (α-EDC4) in glucose-deprived HEK293T cells; format: cell-based
Method: (§1) SuTEx compound treatments. Prior to treatments, cells were washed twice with warm phosphate-buffered saline (PBS) and exchanged with serum-free DMEM (supplemented with 1% L-glutamine) for at least 30 minutes at 37° C. with 5% CO2. Compounds were then added as 1000×DMSO stocks (10 μL for 10 cm dishes and 3 μL for 6-well dishes), plates were mixed gently, and cells were incubated for two hours. All compounds were thoroughly vortexed and sonicated for five minutes prior to addition to ensure complete solvation. For microscopy experiments, cultures were seeded at 150,000 cells in 3 mL of DMEM in 6-well THERMO SCIENTIFIC™ BIOLITE™ brand microwell plates (Catalog No. 12556004; Thermo Fisher Scientific Inc., Waltham, Massachusetts. United States of America). For collection, media was aspirated, and cells were washed once with cold PBS before scraping from plates. Cells were centrifuged at 500×g at 4° C. for 5 minutes and supernatant was removed. Cell pellets were resuspended in cold PBS (1 mL) and centrifuged at 1,400×g at 4° C. for 3 minutes. Supernatant was again removed, and pellets were then snap-frozen in liquid nitrogen and stored at −80° C. until needed.
(§2) Immunofluorescence. Immunofluorescence (IF) of HEK293T cells was performed as previously described in Ciancone et al., 2022. HeLa cells were seeded at 9.0×10^4 in a 24-well plate with 12-mm glass coverslips. The next day, the cells were treated with 25 μM SuTEx probe for 2 hours in DMEM medium without FBS. The cells were then treated with 75 μM NaAsO2 for 30 minutes and fixed with 3% paraformaldehyde in PBS for 15 minutes at room temperature (RT) and washed with PBS twice. The fixed cells were permeabilized with PBST (0.1% Triton X-100) for 15 minutes at room temperature and blocked with 5% goat serum in PBST for 30 minutes at RT. The cells were incubated with anti-G3BP1 antibody H-10 (Catalog No. sc-365338 at 1:200 dilution; Santa Cruz Biotechnology, Inc., Dallas, Texas, United States of America) for 2 hours at RT and washed with PBST (0.1% Tween-20) for 5 minutes three times. Next, cells were incubated with goat anti-mouse Alexa 594 antibody (Catalog No. 115-585-003 at 1:800 dilution; Jackson ImmunoResearch, West Grove, Pennsylvania, United States of America) for 30 minutes at RT. The cells were washed twice with PBST, stained with Hoechst 33342 (Catalog No. H3570 at […]; Thermo Fischer Scientific) in PBST for 5 minutes, and washed with PBS twice for 5 minutes. The coverslips were mounted in PROLONG™ Gold AntiFade Mountant (Catalog No. P36930, Thermo Fisher Scientific) and imaged using NIS Elements AR software and a Nikon Eclipse Ti microscope equipped with a ×100 objective and CMOS camera. […] A CellProfiler pipeline was developed to quantify the number of stress granules under each condition. Briefly, cells were recognized as blue^+ (nuclei) red^+ (G3BP1) objects, and the red^+ granules that meet the shape and size threshold were identified and counted. Cells on the border of linages were excluded from the analysis for more accurate quantification.
Data Analysis—Microscopy. All slides were blinded for imaging. Leica SP5X images were analyzed using Fiji (ImageJ). Custom macros were written for analysis and can be obtained upon request. To elaborate, images were split into channels based on the different laser wavelengths measured. Image stacks were then combined using ‘Z-Project’ with an average intensity parameter and a threshold was applied to exclude noise based on the negative control (no EDC4 antibody). The ‘Analyze Particles’ function was used with relevant size and circularity constraints (0.85-1.00) to count the number of foci, with total PBs having a diameter of >150 nm, and large PBs>450 nm. The number of foci was normalized to the number of cells (defined by a DAPI stain count) in each linage, and the number of foci per cell was averaged across technical replicates. Every sample had at least two technical replicates and two independent biological replicates. […]

[3] = system: stress granules (G3BP1 foci) in HeLa cells; assay: Immunofluorescence phenotypic screen for stress granules (α-G3BP1) in stressed HeLa cells; format: cell-based; conditions: 25 μM, 2 h
Method: as §1, §2
We used immunofluorescence (IF) detection for phenotypic screening of SuTEx compound activity on stress-induced PB and SG levels in cells (FIG. 1B). PBs were induced through glucose deprivation of HEK293T cells and detected by immunofluorescence with anti-enhancer of mRNA-decapping protein 4 (EDC4) as previously described (Kedersha & Anderson, 2007; Ciancone et al., 2022) (~4 vs 2 PBs/cell in −glucose and +glucose conditions, respectively; FIG. 8). EDC4 is an established PB marker for mammalian cells and is important for PB formation (Kedersha & Anderson, 2007; Luo et al., 2018). SGs were induced in HeLa cells by [COMPOUND LEFT OUT] treatments and detected by fluorescent staining with anti-Ras GTPase-activating protein-binding protein 1 (G3BP1) antibody (75 μM [COMPOUND LEFT OUT], 30 min; FIG. 9). G3BP1 foci have been used in previous IF studies to identify SGs in cells (Kedersha & Anderson, 2007). […]

eIF4A = conditions: literature; cited from earlier work
[4] = glucose-deprived HEK293T cells, 25 μM, 2 h

Row | SMILES | effect on RNP granules (in words) [1] | inhibition of eIF4A (in words) (eIF4A) | other results
1 | O=c1[nH]cc(F)c(=O)[nH]1 [5-fluorouracil] | formation of pro-survival SGs in solid tumors | – | –
2 | O=S(=O)(c1cccnc1)n1cc(-c2ccccc2F)nn1 [AMC-001, 3-((4-(2-Fluorophenyl)-1H-1,2,3-triazol-1-yl)sulfonyl)pyridine] | – | – | fold induction at 25 µM ([2]; Homo sapiens, HEK-293T, glucose-deprived HEK293T cells, pretreatment, 25 μM, 2 h, read-out: increase in PBs/cells): > 2; effect on PBs (in words) [2, 4]: statistically significant increase in PBs per glucose-deprived cell; increase in PBs ([2]; glucose-deprived cells, pretreatment): > 200%; effect on SGs (in words) [3]: negligible effects on the number of SGs per cell
3 | O=S(=O)(c1ccc(F)cc1)n1cnc(-c2cccnc2)n1 [JWB180, 3-(1-((4-Fluorophenyl)sulfonyl)-1H-1,2,4-triazol-3-yl)pyridine] | – | – | effect on PBs (in words) [2, 4]: negligible effects; effect on SGs (in words) [3]: negligible effects
4 | CC(C)C[C@H](NC(=O)[C@H](Cc1ccccc1)NC(=O)c1cnccn1)B(O)O [bortezomib] | formation of pro-survival SGs in solid tumors | – | –
5 | C[C@@H]1C[C@@H]([C@H](O)CC2CC(=O)NC(=O)C2)C(=O)[C@@H](C)C1 [cycloheximide] | – | – | toxicity (in words) [1]: significant toxicity
6 | CC[C@H]1CN2CCc3cc(OC)c(OC)cc3[C@@H]2C[C@@H]1C[C@H]1NCCc2cc(OC)c(OC)cc21 [emetine] | disassemble SGs and stress-induced PBs | – | effect on PB formation (in words) ([2]; emetine 50 nM, 2 h, vs vehicle (water), p<0.001): inhibited PB formation; toxicity (in words) [1]: significant toxicity; effect on RNP granules (in words) ([1]; listed as Emetine): inhibit and even dissociate PBs
7 | C[C@H]1C[C@@]2(O[C@H]3C[C@H]4[C@@H]5CC[C@H]6C[C@H](O)CC[C@]6(C)[C@H]5[C@@H](O)C[C@]4(C)[C@H]3[C@@]2(C)O)OC1(C)C [hippuristanol] | induce SGs in an eIF2a-independent manner | inhibit eIF4A | –
8 | CC(/C=C/C(C)=C/[C@@H]1Cc2nc(cs2)[C@@H](C)C[C@@H](N)CC(=O)O[C@@H](C)C/C(C)=C/C=C\C(=O)O1)=C\CN(C)C [pateamine A] | induce SGs in an eIF2a-independent manner | inhibit eIF4A | –
9 | COc1ccc([C@@]23Oc4cc(OC)cc(OC)c4[C@]2(O)[C@H](O)[C@H](C(=O)N(C)C)[C@H]3c2ccccc2)cc1 [rocaglamide A] | – | inhibit eIF4A | –
10 | COC(=O)[C@H]1[C@@H](O)[C@@]2(O)c3c(OC)cc(O[C@@H]4O[C@@H]([C@H](O)CO)CO[C@H]4OC)cc3O[C@@]2(c2ccc(OC)cc2)[C@@H]1c1ccccc1 [silvestrol] | – | inhibit eIF4A | –
11 | CC[C@]1(O)C[C@@H]2CN(CCc3c([nH]c4ccccc34)[C@@](C(=O)OC)(c3cc4c(cc3OC)N(C)[C@H]3[C@@](O)(C(=O)OC)[C@H](OC(C)=O)[C@]5(CC)C=CCN6CC[C@]43[C@@H]65)C2)C1 [vinblastine] | form PBs | – | –
